Source: the supplement of paper PMC11061612

Assays:
Assay in all cases: combination Emax (second highest fraction inhibited in the dose matrix, 72 h); higher = more inhibition; extreme values may be limits of the assay
[1] = tested on: CAPAN-1 (Pancreatic Carcinoma)
In short: (§1)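 Bliss excess equals the observed combination effect minus the expected value EA + EB − EA·EB, where EA and EB are the effects of each agent alone. Combination Emax is the second-highest inhibition within the matrix. Inhibition was scaled from CellTiter-Glo 2.0 luminescence, with 0 set by vehicle wells and 1 by blank wells, after 72 hours of two-drug dosing of cells plated in 1536-well plates.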

[2] = tested on: CTB-1 (B-Cell Non-Hodgkin's Lymphoma)
In short: as §1

[3] = tested on: HDLM-2 (Hodgkin's Lymphoma)
In short: as §1

HMV-II (Melanoma) = tested on: HMV-II (Melanoma)
In short: as §1

[4] = tested on: HO-1-u-1 (Oral Cavity Carcinoma)
In short: as §1

[5] = tested on: Hs-633T (Other Solid Carcinomas)
In short: as §1

[6] = tested on: K5 (Thyroid Gland Carcinoma)
In short: as §1

[7] = tested on: KARPAS-231 (B-Cell Non-Hodgkin's Lymphoma)
In short: as §1

[8] = tested on: KYSE-410 (Esophageal Squamous Cell Carcinoma)
In short: as §1

[9] = tested on: LB771-HNC (Head and Neck Carcinoma)
In short: as §1

[10] = tested on: LU-139 (Small Cell Lung Carcinoma)
In short: as §1

[11] = tested on: MDA-MB-468 (Breast Carcinoma)
In short: as §1

[12] = tested on: MHH-PREB-1 (B-Cell Non-Hodgkin's Lymphoma)
In short: as §1

Mewo (Melanoma) = tested on: Mewo (Melanoma)
In short: as §1

NCI-H28 (Mesothelioma) = tested on: NCI-H28 (Mesothelioma)
In short: as §1

[13] = tested on: OC-314 (Ovarian Carcinoma)
In short: as §1

[14] = tested on: OVCAR-8 (Ovarian Carcinoma)
In short: as §1

[15] = tested on: SW1116 (Colorectal Carcinoma)
In short: as §1

[16] = tested on: SW626 (Colorectal Carcinoma)
In short: as §1

[17] = tested on: TE-4 (Esophageal Squamous Cell Carcinoma)
In short: as §1

Structure (SMILES) | combination Emax [1] | combination Emax [2] | combination Emax [3] | combination Emax (HMV-II (Melanoma)) | combination Emax [4] | combination Emax [5] | combination Emax [6] | combination Emax [7] | combination Emax [8] | combination Emax [9] | combination Emax [10] | combination Emax [11] | combination Emax [12] | combination Emax (Mewo (Melanoma)) | combination Emax (NCI-H28 (Mesothelioma)) | combination Emax [13] | combination Emax [14] | combination Emax [15] | combination Emax [16] | combination Emax [17]
COc1cc2c(cc1OCCCCCOc1cc3c(cc1OC)C(=O)N1C=C(C)C[C@H]1C=N3)N=C[C@@H]1CC(C)=CN1C2=O [SG3199] + O=C(c1cc(Cc2n[nH]c(=O)c3ccccc23)ccc1F)N1CCN(C(=O)C2CC2)CC1 [Olaparib] (first compound max 0.001 µM, 7x7, partner max 10 µM) | 0.198 | 0.28 | 0.167 | 0.118 | 0.15 | 0.142 | 0.196 | 0.262 | 0.136 | 0.181 | 0.174 | 0.231 | 0.13 | 0.106 | 0.0051 | 0.205 | 0.268 | 0.0344 | 0.102 | 0.233
CCN(CCO)CCCOc1ccc2c(Nc3cc(CC(=O)Nc4cccc(F)c4)[nH]n3)ncnc2c1 [AZD2811] + C[C@@H]1COCCN1C2=NC(=NC(=C2)C3(CC3)[S@](=N)(=O)C)C4=C5C=CNC5=NC=C4 [AZD6738] (first compound max 1 µM, 7x7, partner max 10 µM) | 0.442 | 0.751 | 0.515 | 0.313 | 0.852 | 0.885 | 0.635 | 0.825 | 0.355 | 0.46 | 0.299 | 0.563 | 0.797 | 0.49 | 0.533 | 0.869 | 0.797 | 0.295 | 0.581 | 0.372
COc1cccc(OCCCN)c1-c1cc(Nc2cnc(C#N)cn2)n[nH]1 [Prexasertib] + CN(C)CCCOc1ccc(-c2ccc3ncc4c(c3c2)n(C2CCOCC2)c(=O)n4C)cn1 [AZD0156] (first compound max 1 µM, 7x7, partner max 1 µM) | 0.611 | 0.96 | 0.512 | 0.517 | 0.975 | 0.908 | 0.767 | 0.979 | 0.483 | 0.587 | 0.505 | 0.492 | 0.974 | 0.531 | 0.626 | 0.962 | 0.988 | 0.516 | 0.707 | 0.65
CC1(C)CCC(CN2CCN(c3ccc(C(=O)NS(=O)(=O)c4ccc(NCC5CCOCC5)c([N+](=O)[O-])c4)c(Oc4cnc5[nH]ccc5c4)c3)CC2)=C(c2ccc(Cl)cc2)C1 [Venetoclax] + Cc1cc2ncnn2cc1Nc1ncc2c(n1)n(C1CCOCC1)c(=O)n2C [AZD7648] (first compound max 1 µM, 7x7, partner max 10 µM) | 0.195 | 0.358 | 0.431 | 0.263 | 0.305 | 0.188 | 0.394 | 0.808 | 0.23 | 0.271 | 0.439 | 0.397 | 0.178 | 0.509 | 0.216 | 0.251 | 0.229 | 0.151 | 0.136 | 0.228
CN(CCO)CC[C@H](CSc1ccccc1)Nc1ccc(S(=O)(=O)NC(=O)c2ccc(N3CCC([C@@H](O)c4ccccc4-c4ccc(Cl)cc4)CC3)cc2)cc1S(=O)(=O)C(F)(F)F [AZD4320] + C[C@@H]1COCCN1C2=NC(=NC(=C2)C3(CC3)[S@](=N)(=O)C)C4=C5C=CNC5=NC=C4 [AZD6738] (first compound max 1 µM, 7x7, partner max 10 µM) | 0.724 | 0.768 | 0.926 | 0.331 | 0.926 | 0.946 | 0.702 | 1 | 0.421 | 0.6 | 0.929 | 0.842 | 0.754 | 0.647 | 0.668 | 0.909 | 0.796 | 0.375 | 0.869 | 0.691
CN(CCO)CC[C@H](CSc1ccccc1)Nc1ccc(S(=O)(=O)NC(=O)c2ccc(N3CCC([C@@H](O)c4ccccc4-c4ccc(Cl)cc4)CC3)cc2)cc1S(=O)(=O)C(F)(F)F [AZD4320] + CN(C)CCCOc1ccc(-c2ccc3ncc4c(c3c2)n(C2CCOCC2)c(=O)n4C)cn1 [AZD0156] (first compound max 1 µM, 7x7, partner max 1 µM) | 0.145 | 0.206 | 0.785 | 0.157 | 0.259 | 0.163 | 0.289 | 0.997 | 0.108 | 0.0751 | 0.923 | 0.656 | 0.205 | 0.147 | 0.163 | 0.165 | 0.212 | 0.191 | 0.573 | 0.0906
CCN(CCO)CCCOc1ccc2c(Nc3cc(CC(=O)Nc4cccc(F)c4)[nH]n3)ncnc2c1 [AZD2811] + C=CCn1c(=O)c2cnc(Nc3ccc(N4CCN(C)CC4)cc3)nc2n1-c1cccc(C(C)(C)O)n1 [AZD1775] (first compound max 1 µM, partner max 1 µM) | 0.416 | 0.876 | 0.746 | 0.473 | 0.54 | 0.649 | 0.507 | 0.993 | 0.267 | 0.359 | 0.567 | 0.434 | 0.718 | 0.402 | 0.278 | 0.839 | 0.791 | 0.208 | 0.427 | 0.171
COc1cccc(OCCCN)c1-c1cc(Nc2cnc(C#N)cn2)n[nH]1 [Prexasertib] + C=CCn1c(=O)c2cnc(Nc3ccc(N4CCN(C)CC4)cc3)nc2n1-c1cccc(C(C)(C)O)n1 [AZD1775] (first compound max 1 µM, partner max 1 µM) | 0.577 | 0.967 | 0.612 | 0.708 | 0.986 | 0.973 | 0.742 | 0.989 | 0.584 | 0.622 | 0.741 | 0.645 | 0.977 | 0.599 | 0.659 | 0.98 | 0.998 | 0.63 | 0.695 | 0.813
CN(CCO)CC[C@H](CSc1ccccc1)Nc1ccc(S(=O)(=O)NC(=O)c2ccc(N3CCC([C@@H](O)c4ccccc4-c4ccc(Cl)cc4)CC3)cc2)cc1S(=O)(=O)C(F)(F)F [AZD4320] + C1CN(CCC1(C(=O)N[C@@H](CCO)C2=CC=C(C=C2)Cl)N)C3=NC=NC4=C3C=CN4 [Capivasertib] (first compound max 1 µM, 7x7, partner max 3 µM) | 0.161 | 0.295 | 0.841 | 0.169 | 0.744 | 0.298 | 0.499 | 1 | 0.0467 | 0.259 | 0.912 | 0.821 | 0.173 | 0.204 | 0.159 | 0.261 | 0.146 | 0.139 | 0.643 | 0.511
COc1cccc(OCCCN)c1-c1cc(Nc2cnc(C#N)cn2)n[nH]1 [Prexasertib] + CCc1c2c(nc3ccc(O)cc13)-c1cc3c(c(=O)n1C2)COC(=O)[C@]3(O)CC [SN-38] (first compound max 1 µM, 7x7, partner max 0.3 µM) | 0.809 | 0.934 | 0.676 | 0.669 | 0.996 | 0.814 | 0.628 | 1 | 0.705 | 0.647 | 0.899 | 0.817 | 0.96 | 0.721 | 0.616 | 1 | 1 | 0.763 | 0.819 | 0.881
CC1(C)CCC(CN2CCN(c3ccc(C(=O)NS(=O)(=O)c4ccc(NCC5CCOCC5)c([N+](=O)[O-])c4)c(Oc4cnc5[nH]ccc5c4)c3)CC2)=C(c2ccc(Cl)cc2)C1 [Venetoclax] + C[C@@H]1COCCN1C2=NC(=NC(=C2)C3(CC3)[S@](=N)(=O)C)C4=C5C=CNC5=NC=C4 [AZD6738] (first compound max 1 µM, 7x7, partner max 10 µM) | 0.416 | 0.836 | 0.683 | 0.464 | 0.853 | 0.763 | 0.616 | 1 | 0.372 | 0.474 | 0.636 | 0.624 | 0.795 | 0.556 | 0.472 | 0.897 | 0.712 | 0.329 | 0.638 | 0.617
CN(CCO)CC[C@H](CSc1ccccc1)Nc1ccc(S(=O)(=O)NC(=O)c2ccc(N3CCC([C@@H](O)c4ccccc4-c4ccc(Cl)cc4)CC3)cc2)cc1S(=O)(=O)C(F)(F)F [AZD4320] + Cc1cc2ncnn2cc1Nc1ncc2c(n1)n(C1CCOCC1)c(=O)n2C [AZD7648] (first compound max 1 µM, 7x7, partner max 10 µM) | 0.161 | 0.317 | 0.895 | 0.18 | 0.325 | 0.614 | 0.392 | 1 | 0.134 | 0.138 | 0.937 | 0.747 | 0.119 | 0.194 | 0.15 | 0.22 | 0.14 | 0.117 | 0.577 | 0.173
